From patent US11780833B2, “Emetine derivatives, prodrugs containing same, and methods of treating conditions using same” (HOWARD UNIVERSITY, priority 2011, dated 2023)
Like-named read-outs stand apart in the source and are kept apart here.

Experiments:
PC3 cells = test: cells; assay type: cell-based; conditions: Homo sapiens
Protocol: (§1) Studies were carried out on three prostate cancer cell lines: LNCaP, PC3, and DU145. […] There was not a significant difference in cytotoxicity of emetine between days 3 and 7. […] This increase is most likely due to the release of emetine from the dithiocarbamate salt over the time period. Further drug release studies at pH 5 confirmed about 45% release of emetine from the dithiocarbamate salt after 3-day incubation at this acidic pH maintained at 37° C., whereas release of emetine from the dithiocarbamate salt was not observed at physiological pH (e.g., about 7.4).
(§2) Various compounds prepared according to Examples 1-5 were studied in LNCaP, PC3, and DU145 cells.
(§3) Various compounds prepared according to Example 6 were studied in DU145 and PC3 cells. The IC50 was determined at 3, 5, and 7 days.

LNCaP cells = test: Cytotoxicity in LNCaP prostate cancer cell line; assay type: cell-based; conditions: Homo sapiens, 168 h, read-out: IC50 after 7 days
Protocol: as §1, §2

DU145 cells = test: cells; assay type: cell-based; conditions: Homo sapiens
Protocol: as §1, §2, §3

[1] = pH-responsiveness by HPLC: emetine released in aqueous phosphate buffer; assay type: physicochemical; conditions: 37° C.
Protocol: Relative rates of hydrolysis of the compounds listed in Table 5 below over a 48 hour period were evaluated using the percent emetine released from the acid catalyzed hydrolysis of compounds 1 to 6.
The compounds were incubated in aqueous phosphate buffer at pH 5.5, 6.5 and 7.4 at 37° C. over a 48 hour period. High performance liquid chromatography (HPLC) was employed to analyze the samples and quantify how much emetine was released. The compounds whose hydrolysis to emetine is shown in table 5 are all 100% stable at physiological pH 7.4 up to a 5 day exposure.

[2] = PC-3, 168 h, read-out: IC50 after 7 days
[3] = DU-145, 168 h, read-out: IC50 after 7 days

SMILES: CCC1CN2CCc3cc(OC)c(OC)cc3C2CC1CC1c2cc(OC)c(OC)cc2CCN1C(=S)Nc1ccccc1 (stereo not shown) [Compound 11a]
- IC50 (PC3 cells; [2]): 0.484 ± 0.0247 µM

SMILES: CCOC(=O)c1ccc(NC(=O)CSC(=S)N2CCc3cc(OC)c(OC)cc3C2CC2CC3c4cc(OC)c(OC)cc4CCN3CC2CC)cc1 (stereo not shown) [Compound 4c]
- IC50 (LNCaP cells): 1.66 ± 0.564 µM
- IC50 (DU145 cells; [3]): 2.47 ± 0.263 µM
- IC50 (PC3 cells; [2]): 2.71 ± 0.192 µM

SMILES: CCC1CN2CCc3cc(OC)c(OC)cc3C2CC1CC1c2cc(OC)c(OC)cc2CCN1C(=S)SCc1ccccc1 (stereo not shown) [Compound 4f]
- IC50 (LNCaP cells): 1.97 ± 0.088 µM
- IC50 (DU145 cells; [3]): 1.98 ± 0.213 µM
- IC50 (PC3 cells; [2]): 1.56 ± 0.29 µM

SMILES: CCC1CN2CCc3cc(OC)c(OC)cc3C2CC1CC1c2cc(OC)c(OC)cc2CCN1C(=S)NCc1ccc(F)cc1 (stereo not shown) [Compound 11i]
- IC50 (PC3 cells; [2]): 5.27 ± 0.372 µM

SMILES: CCC1CN2CCc3cc(OC)c(OC)cc3C2CC1CC1c2cc(OC)c(OC)cc2CCN1C(=S)SCCC(N)=O (stereo not shown) [Compound 4b]
- IC50 (LNCaP cells): > 10 µM
- IC50 (DU145 cells; [3]): > 10 µM
- IC50 (PC3 cells; [2]): 6.56 ± 1.11 µM

SMILES: CCC1CN2CCc3cc(OC)c(OC)cc3C2CC1CC1c2cc(OC)c(OC)cc2CCN1C(=O)/C=C\C(=O)O (stereo not shown) [Compound 4]
- % Emetine at pH 5.5 ([1]; pH 5.5, 0 hr): 0.0%
- % Emetine at pH 5.5 ([1]; pH 5.5, 24 hrs): 19.2%
- % Emetine at pH 5.5 ([1]; pH 5.5, 48 hrs): 27.1%
- % Emetine at pH 6.5 ([1]; pH 6.5, 0 hr): 0.0%
- % Emetine at pH 6.5 ([1]; pH 6.5, 24 hrs): 8.2%
- % Emetine at pH 6.5 ([1]; pH 6.5, 48 hrs): 17.1%
- % Emetine at pH 7.4 to 8.0 over 72 hrs ([1]; pH 7.4 to 8.0, 0 hrs): 0.0%
- % Emetine at pH 7.4 to 8.0 over 72 hrs ([1]; pH 7.4 to 8.0, 24 hrs): 0.0%
- % Emetine at pH 7.4 to 8.0 over 72 hrs ([1]; pH 7.4 to 8.0, 48 hrs): 0.0%

SMILES: CCC1CN2CCc3cc(OC)c(OC)cc3C2CC1CC1c2cc(OC)c(OC)cc2CCN1C(=S)NCc1ccc(OC)cc1 (stereo not shown) [Compound 11f]
- IC50 (PC3 cells; [2]): 5 ± 0.307 µM

SMILES: CCC1CN2CCc3cc(OC)c(OC)cc3C2CC1CC1c2cc(OC)c(OC)cc2CCN1C(=S)NCCOC (stereo not shown) [Compound 11n]
- IC50 (PC3 cells; [2]): > 10 µM

SMILES: CCC1CN2CCc3cc(OC)c(OC)cc3C2CC1CC1c2cc(OC)c(OC)cc2CCN1C(=S)SCC(=O)Nc1ccc(Br)cc1 (stereo not shown) [Compound 4g]
- IC50 (LNCaP cells): 1.7 ± 0.187 µM
- IC50 (DU145 cells; [3]): 2.79 ± 0.151 µM
- IC50 (PC3 cells; [2]): 2.77 ± 0.146 µM

SMILES: CCC1CN2CCc3cc(OC)c(OC)cc3C2CC1CC1c2cc(OC)c(OC)cc2CCN1C(=O)OCc1ccccc1 (stereo not shown) [Compound 5b]
- IC50 (LNCaP cells): 2.16 ± 0.122 µM

SMILES: CCC1CN2CCc3cc(OC)c(OC)cc3C2CC1CC1c2cc(OC)c(OC)cc2CCN1C(=O)CCC(=O)O (stereo not shown) [Compound 15e2]
- IC50 (DU145 cells; DU-145, 72 h, read-out: IC50 in DU145): 0.733 ± 0.022 µM
- IC50 (DU145 cells; DU-145, 120 h, read-out: IC50 in DU145): 0.641 ± 0.0543 µM
- IC50 (DU145 cells; DU-145, 168 h, read-out: IC50 in DU145): 0.802 ± 0.0198 µM
- IC50 (PC3 cells; PC-3, 72 h, read-out: IC50 in PC3): 2.5 ± 0.0722 µM
- IC50 (PC3 cells; PC-3, 120 h, read-out: IC50 in PC3): 1.82 ± 0.161 µM
- IC50 (PC3 cells; PC-3, 168 h, read-out: IC50 in PC3): 2.15 ± 0.131 µM

SMILES: CCC1CN2CCc3cc(OC)c(OC)cc3C2CC1CC1c2cc(OC)c(OC)cc2CCN1C(=S)Nc1ccc(OC)cc1 (stereo not shown) [Compound 11b]
- IC50 (DU145 cells; [3]): 0.467 ± 0.025 µM

SMILES: CCC1CN2CCc3cc(OC)c(OC)cc3C2CC1CC1c2cc(OC)c(OC)cc2CCN1C(=O)/C=C(/CC(=O)O)C(=O)O (stereo not shown) [Compound 6]
- % Emetine at pH 5.5 ([1]; pH 5.5, 0 hr): 0.0%
- % Emetine at pH 5.5 ([1]; pH 5.5, 24 hrs): 33.9%
- % Emetine at pH 5.5 ([1]; pH 5.5, 48 hrs): 42.1%
- % Emetine at pH 6.5 ([1]; pH 6.5, 0 hr): 0.0%
- % Emetine at pH 6.5 ([1]; pH 6.5, 24 hrs): 13.4%
- % Emetine at pH 6.5 ([1]; pH 6.5, 48 hrs): 21.1%
- % Emetine at pH 7.4 to 8.0 over 72 hrs ([1]; pH 7.4 to 8.0, 0 hrs): 0.0%
- % Emetine at pH 7.4 to 8.0 over 72 hrs ([1]; pH 7.4 to 8.0, 24 hrs): 0.0%
- % Emetine at pH 7.4 to 8.0 over 72 hrs ([1]; pH 7.4 to 8.0, 48 hrs): 0.0%

SMILES: CCCCCCCCNC(=S)N1CCc2cc(OC)c(OC)cc2C1CC1CC2c3cc(OC)c(OC)cc3CCN2CC1CC (stereo not shown) [Compound 11m]
- IC50 (LNCaP cells): 1.01 ± 0.249 µM
- IC50 (PC3 cells; [2]): 1.43 ± 0.336 µM

SMILES: CCC1CN2CCc3cc(OC)c(OC)cc3C2CC1CC1c2cc(OC)c(OC)cc2CCN1S(=O)(=O)c1ccc(C)cc1 (stereo not shown) [Compound 8a]
- IC50 (DU145 cells; [3]): 6.24 ± 0.098 µM

SMILES: CCC1CN2CCc3cc(OC)c(OC)cc3C2CC1CC1c2cc(OC)c(OC)cc2CCN1C(=S)Nc1ccc(Cl)cc1 (stereo not shown) [Compound 11c]
- IC50 (PC3 cells; [2]): 0.505 ± 0.0159 µM

SMILES: CCC1CN2CCc3cc(OC)c(OC)cc3C2CC1CC1c2cc(OC)c(OC)cc2CCN1C(=S)SCCCCC(=O)OC (stereo not shown) [Compound 4l]
- IC50 (LNCaP cells): 2.31 ± 0.174 µM
- IC50 (DU145 cells; [3]): 2.25 ± 0.084 µM
- IC50 (PC3 cells; [2]): 4.86 ± 0.153 µM
